In brackets after ≈: the same amount, converted by molar mass. Activity calls are given as the source filed them. The rule behind the calls is not given here.
Experiments:
[1] = Partition coefficient, log P at 5 mM by reverse phase HPLC analysis; assay type: physicochemical; details: octanol/water
[2] = Metabolic stability in rat liver microsomes assessed as compound remaining after 30 mins by HPLC/MS analysis; assay type: ADME, Microsome; details: read-out: Stability
[3] = Thermodynamic solubility in sodium phosphate buffer of pH 7.4 by UV-reverse phase HPLC analysis; assay type: physicochemical
[4] = Inhibition of human platelet cPLA2alpha assessed as inhibition of arachidonic acid production after 60 mins by UV-reverse phase HPLC analysis; details: 1 h
[5] = target: T1, 85/88 kDa calcium-independent phospholipase A2 (Rattus norvegicus) (UniProt P97570); assay: Inhibition of Sprague-Dawley rat brain iPLA2 assessed as inhibition of substrate cleavage at 10 uM after 60 mins by HPLC analysis
T1 sequence (whole entry): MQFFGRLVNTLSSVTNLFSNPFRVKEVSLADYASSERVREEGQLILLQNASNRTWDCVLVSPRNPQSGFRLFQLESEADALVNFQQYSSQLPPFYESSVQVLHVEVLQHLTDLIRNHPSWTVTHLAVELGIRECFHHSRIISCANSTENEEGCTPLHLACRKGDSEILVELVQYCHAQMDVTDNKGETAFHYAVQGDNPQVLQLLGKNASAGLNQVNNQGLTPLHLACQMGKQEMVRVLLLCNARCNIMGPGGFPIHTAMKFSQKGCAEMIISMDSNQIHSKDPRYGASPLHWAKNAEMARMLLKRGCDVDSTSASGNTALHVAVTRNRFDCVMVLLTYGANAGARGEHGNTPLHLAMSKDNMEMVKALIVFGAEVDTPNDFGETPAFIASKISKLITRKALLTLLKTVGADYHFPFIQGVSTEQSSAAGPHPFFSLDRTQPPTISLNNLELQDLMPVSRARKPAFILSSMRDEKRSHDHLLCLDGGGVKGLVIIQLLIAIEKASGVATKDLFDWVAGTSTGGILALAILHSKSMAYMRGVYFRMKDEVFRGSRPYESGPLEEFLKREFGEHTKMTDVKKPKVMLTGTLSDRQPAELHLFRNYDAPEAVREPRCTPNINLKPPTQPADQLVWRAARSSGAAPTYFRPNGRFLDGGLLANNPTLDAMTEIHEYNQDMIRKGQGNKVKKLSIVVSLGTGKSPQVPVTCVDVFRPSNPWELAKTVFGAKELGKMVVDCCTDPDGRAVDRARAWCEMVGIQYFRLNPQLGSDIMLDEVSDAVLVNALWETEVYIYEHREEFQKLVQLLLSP

Homo sapiens [6] = organism: Homo sapiens; assay: Inhibition of human platelet cPLA2alpha assessed as inhibition of arachidonic acid production at 1 uM after 60 mins by UV-reverse phase HPLC analysis
Homo sapiens [7] = organism: Homo sapiens; assay: Inhibition of human platelet cPLA2alpha assessed as inhibition of arachidonic acid production at 33 nM after 60 mins by UV-reverse phase HPLC analysis
[8] = Inhibition of cPLA2alpha
[9] = Drug level in C57Bl6 mouse bile at 10 mg/kg, iv after 30 mins by HPLC/MS analysis; assay type: ADME, organism-based; parameters: dose 10 mg/kg, route intravenous; details: read-out: Drug uptake
[10] = Drug level in C57Bl6 mouse plasma at 100 mg/kg, po after 2 hrs by UV-reverse phase HPLC analysis; assay type: ADME, organism-based; parameters: dose 100 mg/kg, route oral; details: read-out: Drug uptake
[11] = Drug level in C57Bl6 mouse plasma at 10 mg/kg, po after 1 hr by UV-reverse phase HPLC analysis; assay type: ADME, organism-based; parameters: dose 10 mg/kg, route oral; details: read-out: Drug uptake
[12] = Drug level in C57Bl6 mouse plasma at 10 mg/kg, po after 2 hrs by UV-reverse phase HPLC analysis; assay type: ADME, organism-based; parameters: dose 10 mg/kg, route oral; details: read-out: Drug uptake
[13] = Drug level in C57Bl6 mouse plasma at 10 mg/kg, iv after 5 mins by UV-reverse phase HPLC analysis; assay type: ADME, organism-based; parameters: dose 10 mg/kg, route intravenous; details: read-out: Drug uptake
[14] = Drug level in C57Bl6 mouse plasma at 10 mg/kg, iv after 30 mins by UV-reverse phase HPLC analysis; assay type: ADME, organism-based; parameters: dose 10 mg/kg, route intravenous; details: read-out: Drug uptake
[15] = Drug level in C57Bl6 mouse bile at 100 mg/kg, po after 2 hrs by HPLC/MS analysis; assay type: ADME, organism-based; parameters: dose 100 mg/kg, route oral; details: read-out: Drug uptake
[16] = Drug level in C57Bl6 mouse plasma at 100 mg/kg, po after 1 hr by UV-reverse phase HPLC analysis; assay type: ADME, organism-based; parameters: dose 100 mg/kg, route oral; details: read-out: Drug uptake
[17] = target: Phospholipase A2, major isoenzyme (Sus scrofa) (UniProt P00592); assay: Inhibition of pig pancreas group 1B sPLA2 assessed as inhibition of POPG cleavage at 10 uM after 30 mins by HPLC analysis
Sequence of Phospholipase A2, major isoenzyme (Sus scrofa) (P00592 23-146 limits assumed): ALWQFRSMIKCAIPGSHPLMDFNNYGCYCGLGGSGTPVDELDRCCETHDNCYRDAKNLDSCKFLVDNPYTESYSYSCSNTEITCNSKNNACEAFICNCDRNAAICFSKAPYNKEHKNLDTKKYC

SMILES | logP at 5000 µM [1] | remaining at 0.5 h [2] [%] | solubility thermodynamic [3] [µg/mL] | IC50 [4] [µM] | also measured
O=C(COc1ccc(-c2cccc(Cl)c2)cc1)Cn1ccc2cc(C(=O)O)ccc21 | 3.8 | 31 | < 3 | 0.019 | –
O=C(COc1ccc(-c2ccc(Cl)cc2)cc1)Cn1ccc2cc(C(=O)O)ccc21 | 3.9 | 46 | < 3 | 0.027 | –
O=C(COc1ccc(-c2ccc(F)cc2)cc1)Cn1ccc2cc(C(=O)O)ccc21 | 3.2 | 14 | < 3 | 0.037 | –
CCCCCCOc1ccc(OCC(=O)Cn2ccc3cc(C(=O)O)ccc32)cc1 | 4.6 | 38 | 7 (≈ 17.1 µM) | 0.034 | –
O=C1O/C(=C/Br)CCC1c1cccc2ccccc12 (stereo unspecified) | – | – | – | – | inhibition [5]: 50%
NC(=O)c1ccc2c(ccn2CC(=O)COc2cccc(-c3ccccc3)c2)c1 | 2.3 | 15 | < 3 | 0.25 | –
NC(=O)c1ccc2c(ccn2CC(=O)COc2ccccc2-c2ccccc2)c1 | 2.3 | 20 | < 3 | – | inhibition (Homo sapiens [6]): inactive
CC(=O)c1cn(CC(=O)COc2ccc(OCCOc3ccccc3)cc2)c2ccc(C(=O)O)cc12 | 2.6 | 68 | 34 (≈ 69.7 µM) | 0.041 | –
CCCCCCCCc1ccc(OCC(=O)Cn2ccc3cc(C(=O)O)ccc32)cc1 | 6.3 | – | – | – | inhibition (Homo sapiens [7]): 47%; IC50 [8]: 0.12 µM
COc1ccc(-c2ccc(OCC(=O)Cn3ccc4cc(C(=O)O)ccc43)cc2)cc1 | 3 | 2 | < 3 | 0.09 | –
CCCCCCCCOc1ccc(OCC(=O)Cn2ccc3cc(C(=O)O)ccc32)cc1 | 5.9 | 79 | < 3 | 0.026 | –
O=C(COc1ccc(Oc2ccccc2)cc1)Cn1ccc2cc(C(=O)O)ccc21 | 3.1 | 3 | 43 (≈ 107 µM) | 0.036 | –
O=C(COc1ccccc1-c1ccccc1)Cn1ccc2cc(C(=O)O)ccc21 | 3.1 | 81 | 21 (≈ 54.5 µM) | – | inhibition (Homo sapiens [6]): inactive
Cc1cc(-c2ccccc2)ccc1OCC(=O)Cn1ccc2cc(C(=O)O)ccc21 | – | 33 | < 3 | > 1 | inhibition (Homo sapiens [6]): 16%
CCCCCCCCCOc1ccc(OCC(=O)Cn2ccc3cc(C(=O)O)ccc32)cc1 | 6.5 | 74 | < 3 | 0.023 | –
O=C(COc1ccc(Cc2ccccc2)cc1)Cn1ccc2cc(C(=O)O)ccc21 | 3.3 | 7 | 18 (≈ 45.1 µM) | 0.054 | –
O=C(COc1ccc(Oc2ccc(C(F)(F)F)cc2)cc1)Cn1ccc2cc(C(=O)O)ccc21 | 4 | 57 | < 3 | 0.019 | –
COc1cc(-c2ccccc2)ccc1OCC(=O)Cn1ccc2cc(C(=O)O)ccc21 | 2.9 | 72 | 6 (≈ 14.4 µM) | – | inhibition (Homo sapiens [6]): inactive

SMILES | logP at 5000 µM [1] | remaining at 0.5 h [2] [%] | solubility thermodynamic [3] [µg/mL] | IC50 [4] [µM] | also measured
NC(=O)c1ccc2c(ccn2CC(=O)COc2ccc(-c3ccccc3)cc2)c1 | 2.4 | 33 | < 3 | 0.15 | –
CCCCCCCCc1ccc(OCC(=O)Cn2ccc3cc(C(N)=O)ccc32)cc1 | 5.5 | 54 | < 3 | 0.12 | IC50 [8]: 0.035 µM
Cc1ccc(-c2ccc(OCC(=O)Cn3ccc4cc(C(=O)O)ccc43)cc2)cc1 | 3.7 | 22 | < 3 | 0.04 | –
CC(C)(c1ccccc1)c1ccc(OCC(=O)Cn2ccc3cc(C(=O)O)ccc32)cc1 | 4.1 | 0 | 25 (≈ 58.5 µM) | 0.047 | –
CC(C)C(=O)c1cn(CC(O)COc2ccc(Oc3ccccc3)cc2)c2ccc(C(=O)O)cc12 (stereo unspecified) | – | – | – | – | concentration at 0.5 h [9]: 96 µg/mL; concentration at 2 h [10]: 0.3 µg/mL; concentration at 1 h [11]: 42 µg/mL; concentration at 2 h [12]: 34 µg/mL; concentration at 5 min [13]: 6.2 µg/mL; concentration at 0.5 h [14]: 0.5 µg/mL; concentration at 2 h [15]: 42 µg/mL; concentration at 1 h [16]: 1.7 µg/mL
COc1ccc2c(c1)c(CC(=O)O)c(C)n2C(=O)c1ccc(Cl)cc1 [INDOMETHACIN] | 2.9 | – | 246 (≈ 688 µM) | – | –
O=C(O)CC[C@@H](Cc1ccc(OCc2ccccc2)cc1)NC(=O)CCCCCCc1ccccc1 | – | – | – | – | inhibition [17]: 89%
CCCCCCCOc1ccc(OCC(=O)Cn2ccc3cc(C(=O)O)ccc32)cc1 | 5.2 | 57 | < 3 | 0.032 | –
CC(=O)c1cn(CC(=O)COc2ccc(Oc3ccccc3)cc2)c2ccc(C(=O)O)cc12 | 2.6 | 41 | 111 (≈ 250 µM) | 0.012 | –
O=C(COc1cccc(-c2ccccc2)c1)Cn1ccc2cc(C(=O)O)ccc21 | 3.1 | 13 | 16 (≈ 41.5 µM) | 0.21 | –
O=C(COc1ccc(-c2ccccc2)cc1)Cn1ccc2cc(C(=O)O)ccc21 | 3.2 | 7 | 5 (≈ 13 µM) | 0.064 | –
O=C(COc1ccc(-c2cccc(F)c2)cc1)Cn1ccc2cc(C(=O)O)ccc21 | 3.2 | 22 | < 3 | 0.041 | –
CC(=O)c1cn(CC(=O)COc2ccc(Oc3ccc(C(F)(F)F)cc3)cc2)c2ccc(C(=O)O)cc12 | 3.5 | 73 | < 3 | 0.01 | –
O=C(COc1ccc(-c2ccccc2)cc1F)Cn1ccc2cc(C(=O)O)ccc21 | 3.3 | 16 | 5 (≈ 12.4 µM) | 0.23 | –
O=C(COc1ccc(OCCOc2ccccc2)cc1)Cn1ccc2cc(C(=O)O)ccc21 | 3.1 | 21 | 31 (≈ 69.6 µM) | 0.11 | –
CCCCCCCCCCOc1ccc(OCC(=O)Cn2ccc3cc(C(=O)O)ccc32)cc1 | 7.1 | 67 | < 3 | 0.02 | –
CC(C)c1ccc(-c2ccc(OCC(=O)Cn3ccc4cc(C(=O)O)ccc43)cc2)cc1 | 4.7 | 40 | < 3 | 0.035 | –
O=C(COc1ccc(-c2ccccc2)cc1Cl)Cn1ccc2cc(C(=O)O)ccc21 | 3.7 | 61 | < 3 | > 1 | inhibition (Homo sapiens [6]): 29%

From ChEMBL document CHEMBL1155440, “1-(5-carboxyindol-1-yl)propan-2-one inhibitors of human cytosolic phospholipase A(2)alpha with reduced lipophilicity: synthesis, biological activity, metabolic stability, solubility, bioavailability, and topical in vivo activity” (J Med Chem, 2010)
